In patent US20090298866A1, “Indole Compounds” (priority 2006, published 2009):
Where a name gives a salt, the structure may show the parent alone.

How the values were obtained:
human EP1 receptor [1] = molecular target: T1, human EP1 receptor (Homo sapiens, UniProt P34995); assay: Binding assay for the human prostanoid EP1 receptor (competition with [3H]-PGE2); conditions: binding to human EP1 receptor, CHO-K1 membranes, [3H]-PGE2 3 nM; averages of a number of experiments
T1 construct: expressed in transfected cells; host or cells: CHO-K1
T1 sequence (P34995 1-402): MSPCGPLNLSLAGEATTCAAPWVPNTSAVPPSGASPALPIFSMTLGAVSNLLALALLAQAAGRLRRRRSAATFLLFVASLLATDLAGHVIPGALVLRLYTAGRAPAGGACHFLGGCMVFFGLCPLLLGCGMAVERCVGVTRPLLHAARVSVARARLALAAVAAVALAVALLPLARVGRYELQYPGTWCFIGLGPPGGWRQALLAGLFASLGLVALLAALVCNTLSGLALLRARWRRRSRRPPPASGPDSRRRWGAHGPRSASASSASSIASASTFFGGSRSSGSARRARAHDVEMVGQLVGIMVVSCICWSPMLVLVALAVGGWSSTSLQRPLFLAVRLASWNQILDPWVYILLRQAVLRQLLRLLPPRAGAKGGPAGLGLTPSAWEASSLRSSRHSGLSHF
Procedure: Competition assay using [^3H]-PGE2.
Compound potencies are determined using a radioligand binding assay. In this assay compound potencies are determined from their ability to compete with tritiated prostaglandin E2 ([^3H]-PGE2) for binding to the human EP1 receptor. This assay utilises Chinese hamster ovary-K1 (CHO-K1) cells into which a stable vector containing the EP1 cDNA has previously been transfected. Cells are cultured in suitable flasks containing culture medium such as DMEM:F-12 supplemented with 10% v/v foetal calf serum, 2 mM L-glutamine, 0.25 mg/ml geneticin, 10 μg/ml puromycin and 10 μM indomethacin.
Cells are detached from the culture flasks by incubation in calcium and magnesium free phosphate buffered saline containing 1 mM disodium ethylenediaminetetraacetic acid (Na2EDTA) and 10 μM indomethacin for 5 min. The cells are isolated by centrifugation at 250×g for 5 mins and suspended in an ice cold buffer such as 50 mM Tris, 1 mM Na2EDTA, 140 mM NaCl, 10 μM indomethacin (pH 7.4). The cells are homogenised using a Polytron tissue disrupter (2×10 s burst at full setting), centrifuged at 48,000×g for 20 mins and the pellet containing the membrane fraction is washed (optional) three times by suspension and centrifugation at 48,000×g for 20 mins. The final membrane pellet is suspended in an assay buffer such as 10 mM 2-[N-morpholino]ethanesulphonic acid, 1 mM Na2EDTA, 10 mM MgCl2 (pH 6). Aliquots are frozen at −80° C. until required.
For the binding assay the cell membranes, competing compounds and [^3H]-PGE2 (3 nM final assay concentration) are incubated in a final volume of 100 μl for 30 min at 30° C. All reagents are prepared in assay buffer. Reactions are terminated by rapid vacuum filtration over GF/B filters using a Brandell cell harvester. The filters are washed with ice cold assay buffer, dried and the radioactivity retained on the filters is measured by liquid scintillation counting in Packard TopCount scintillation counter.
The data are analysed using non linear curve fitting techniques to determine the concentration of compound producing 50% inhibition of specific binding (IC50).

human EP1 receptor [2] = molecular target: T1, human EP1 receptor; assay: human EP1 calcium mobilisation assay; type: cell-based; conditions: human EP1, CHO-K1 cells, PGE2-induced calcium mobilisation; averages of a number of experiments; read-out: functional pKi (converted)
Procedure: Briefly, the antagonist properties of compounds are assessed by their ability to inhibit the mobilisation of intracellular calcium ([Ca^2+]i) in response to activation of EP1 or EP3 receptors by the natural agonist hormone prostaglandin E2 (PGE2). Increasing concentrations of antagonist reduce the amount of calcium that a given concentration of PGE2 can mobilise. The net effect is to displace the PGE2 concentration-effect curve to higher concentrations of PGE2. The amount of calcium produced is assessed using a calcium-sensitive fluorescent dye such as Fluo-4, AM and a suitable instrument such as a Fluorimetric Imaging Plate Reader (FLIPR). Increasing amounts of [Ca^2+]i produced by receptor activation increase the amount of fluorescence produced by the dye and give rise to an increasing signal. The signal may be detected using the FLIPR instrument and the data generated may be analysed with suitable curve-fitting software.
The human EP1 or EP3 calcium mobilisation assay (hereafter referred to as ‘the calcium assay’) utilises Chinese hamster ovary-K1 (CHO-K1) cells into which a stable (pCIN; BioTechniques 20 (1996): 102-110) vector containing either EP1 or EP3 cDNA has previously been transfected. Cells are cultured in suitable flasks containing culture medium such as DMEM:F-12 supplemented with 10% v/v foetal calf serum, 2 mM L-glutamine, 0.25 mg/ml geneticin, 100 μM flurbiprofen and 10 μg/ml puromycin.
For assay, cells are harvested using a proprietary reagent that dislodges cells such as Versene. Cells are re-suspended in a suitable quantity of fresh culture media for introduction into a 384-well plate. Following incubation for 24 hours at 37° C. the culture media is replaced with a medium containing Fluo-4 and the detergent pluronic acid, and a further incubation takes place. Concentrations of compounds are then added to the plate in order to construct concentration-effect curves. This may be performed on the FLIPR in order to assess the agonist properties of the compounds. Concentrations of PGE2 are then added to the plate in order to assess the antagonist properties of the compounds.
The data so generated may be analysed by means of a computerised curve-fitting routine. The concentration of compound that elicits a half-maximal inhibition of the calcium mobilisation induced by PGE2 (pIC50) may then be estimated.

Compound	IC50 (human EP1 receptor [1]) [nM]	Ki (human EP1 receptor [2]) [nM]
CC(C)Cc1cn(-c2nc(NC(=O)C3CCCC3)cs2)c2cc(Cl)ccc12 [Example 3, N-{2-[6-Chloro-3-isobutyl-1H-indol-1-yl]-1,3-thiazol-4-yl}cyclopentanecarboxamide]	≤ 100	–
CC(C)Cc1cn(-c2nc(NC(=O)C(C)(C)C)cs2)c2cc(Cl)ccc12 [Example 4, N-{2-[6-Chloro-3-isobutyl-1H-indoi-1-yl]-1,3-thiazol-4-yl}-2,2-dimethylpropanamide]	≤ 100	–
CC(C)Cc1cn(-c2nc(C(=O)N3CCCC3)cs2)c2cc(Cl)ccc12 [Example 11, 6-Chloro-3-isobutyl-1-[4-(1-pyrrolidinylcarbonyl)-1,3-thiazol-2-yl]-1H-indole]	–	≤ 100
CC(C)Cc1cn(-c2nc(C(=O)NCCCO)cs2)c2cc(Cl)ccc12 [Example 26, 2-[6-Chloro-3-isobutyl-1H-indol-1-yl]-N-(3-hydroxypropyl)-1,3-thiazole-4-carboxamide]	–	≤ 100
CC(C)Cc1cn(-c2nc(C(N)=O)cs2)c2cc(Br)ccc12 [Example 32, 2-[6-Bromo-3-isobutyl-1H-indol-1-yl]-1,3-thiazole-4-carboxamide]	–	≤ 100
CC(C)Cc1cn(Cc2nc(C(N)=O)cs2)c2cc(Cl)ccc12 [Example 34, 2-{[6-Chloro-3-isobutyl-1H-indol-1-yl]methyl}-1,3-thiazole-4-carboxamide]	–	≤ 100
CC(C)(C)CCc1cn(-c2nc(-c3nc4ccccc4[nH]3)cs2)c2cc(Cl)ccc12 [Example 37, 2-{2-[6-Chloro-3-(3,3-dimethylbutyl)-1H-indol-1-yl]-1,3-thiazol-4-yl}-1H-benzimidazole hydrochloride]	≤ 100	–
CC(C)Cc1cn(-c2nc(-c3nc4ccccc4[nH]3)cs2)c2cc(Br)ccc12 [Example 38, 2-{2-[6-Bromo-3-isobutyl-1H-indol-1-yl]-1,3-thiazol-4-yl}-1H-benzimidazole hydrochloride]	≤ 100	≤ 100
CC(C)Cc1nn(-c2nc(-c3nc4ccccc4[nH]3)cs2)c2cc(Cl)ccc12 [Example 39, 1-[4-(1H-Benzimidazol-2-yl)-1,3-thiazol-2-yl]-6-chloro-3-isobutyl-1H-indazole hydrochloride]	≤ 100	–
CC(C)Cc1cn(Cc2nc(-c3nc4ccccc4[nH]3)cs2)c2cc(Cl)ccc12 [Example 40, 2-(2-{[6-Chloro-3-isobutyl-1H-indol-1-yl]methyl}-1,3-thiazol-4-yl)-1H-benzimidazole hydrochloride]	≤ 100	≤ 100
CC(C)Cc1cn(-c2nc(-c3nc4ccccc4[nH]3)cs2)c2cc(C(F)(F)F)ccc12 [Example 41, 2-{2-[3-Isobutyl-6-(trifluoromethyl)-1H-indol-1-yl]-1,3-thiazol-4-yl}-1H-benzimidazole]	≤ 100	≤ 100
CC(C)Cc1cn(-c2nc(-c3nc4ncccc4[nH]3)cs2)c2cc(Cl)ccc12 [Example 42, 2-{2-[6-Chloro-3-isobutyl-1H-indol-1-yl]-1,3-thiazol-4-yl}-1H-imidazo[4,5-b]pyridine hydrochloride]	≤ 100	–
CC(C)Cc1cn(-c2nc(-c3nc4cnccc4[nH]3)cs2)c2cc(Cl)ccc12 [Example 43, 2-{2-[6-Chloro-3-isobutyl-1H-indol-1-yl]-1,3-thiazol-4-yl}-1H-imidazo[4,5-c]pyridine hydrochloride]	≤ 100	≤ 100
CC(C)Cc1cn(-c2nc(-c3ncc[nH]3)cs2)c2cc(Cl)ccc12 [Example 47, 6-Chloro-1-[4-(1H-imidazol-2-yl)-1,3-thiazol-2-yl]-3-isobutyl-1H-indole]	≤ 100	–

Now from value to compound:

IC50 (human EP1 receptor [1]) [nM]	Ki (human EP1 receptor [2]) [nM]	Compound
–	≤ 100	CC(C)Cc1cn(-c2nc(NC(=O)c3c(F)cccc3F)cs2)c2cc(Cl)ccc12 [Example 5, N-[2-(6-Chloro-3-isobutyl-1H-indol-1-yl)-1,3-thiazol-4-yl]-2,6-difluorobenzamide]
≤ 100	≤ 100	CC(C)Cc1cn(-c2nc(C(=O)Nc3ccc(CO)cc3)cs2)c2cc(Br)ccc12 [Example 12, 2-[6-Bromo-3-isobutyl-1H-indol-1-yl]-N-[4-(hydroxymethyl)phenyl]-1,3-thiazole-4-carboxamide]
≤ 100	–	CC(C)c1cn(-c2nc(C(=O)Nc3ccccc3N)cs2)c2cc(Cl)ccc12 [Example 13, N-(2-Aminophenyl)-2-[6-chloro-3-isopropyl-1H-indol-1-yl]-1,3-thiazole-4-carboxamide]
≤ 100	≤ 100	CC(C)Cc1cn(-c2nc(C(=O)Nc3ccccc3CO)cs2)c2cc(Cl)ccc12 [Example 20, 2-[6-Chloro-3-isobutyl-1H-indol-1-yl]-N-[2-(hydroxymethyl)phenyl]-1,3-thiazole-4-carboxamide]
≤ 100	–	CC(C)Cc1cn(-c2nc(C(=O)Nc3ccc(CO)cc3)cs2)c2cc(Cl)ccc12 [Example 21, 2-[6-Chloro-3-isobutyl-1H-indol-1-yl]-N-[4-(hydroxymethyl)phenyl]-1,3-thiazole-4-carboxamide]
–	≤ 100	CC(C)Cc1cn(-c2nc(C(=O)Nc3cccc(CO)c3)cs2)c2cc(Cl)ccc12 [Example 24, 2-[6-Chloro-3-isobutyl-1H-indol-1-yl]-N-[3-indol-1-yl]N-[3-(hydroxymethyl)phenyl]-1,3-thiazole-4-carboxamide]
–	≤ 100	CC(C)Cc1cn(-c2nc(C(=O)Nc3ccccn3)cs2)c2cc(Cl)ccc12 [Example 27, 2-[6-Chloro-3-isobutyl-1H-indol-1-yl]-N-2-pyridinyl-1,3-thiazole-4-carboxamide]
–	≤ 100	CC(C)Cc1cn(-c2nc(C(=O)Nc3ccc(F)cc3)cs2)c2cc(Cl)ccc12 [Example 29, 2-[6-Chloro-3-isobutyl-1H-indol-1-yl]-N-(4-fluorophenyl)-1,3-thiazole-4-carboxamide]
–	≤ 100	CC(C)Cc1cn(-c2nc(C(N)=O)cs2)c2cc(Cl)ccc12 [Example 30, 2-[6-Chloro-3-isobutyl-1H-indol-1-yl]-1,3-thiazole-4-carboxamide]
≤ 100	≤ 100	CC(C)Cc1cn(-c2nc(-c3nc4ccccc4[nH]3)cs2)c2cc(Cl)ccc12 [Example 35, 2-{2-[6-Chloro-3-isobutyl-1H-indol-1-yl]-1,3-thiazol-4-yl}-1H-benzimidazole hydrochloride]
–	≤ 100	CC(C)Cc1cn(-c2nc(-c3nc(-c4ccccc4)c[nH]3)cs2)c2cc(Cl)ccc12 [Example 52, 6-Chloro-3-isobutyl-1-[4-(4-phenyl-1H-imidazol-2-yl)-1,3-thiazol-2-yl]-1H-indole]
